Data as given in publication PMC6364417, “Kinase inhibitor library screening identifies synergistic drug combinations effective in sensitive and resistant melanoma cells” (Journal of Experimental & Clinical Cancer Research : CR, 2019).

Assays:
Experiment in all cases: Kinase inhibitor library screening, PrestoBlue cell viability, 1 or 10 μM, 72 h
501Mel cells (parental) = details: 501Mel Parental
Method in brief: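 Sensitive parental cells and their resistant derivatives were exposed to library compounds for 72 h. Values represent viability as a percentage of untreated cells.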

[1] = tested on: 501Mel-GP cells (Dabrafenib-resistant); details: 501Mel GP
[2] = tested on: 501Mel-XP cells (Vemurafenib-resistant); details: 501Mel XP
A375 cells (parental) = details: A375 Parental
[3] = tested on: A375-GP cells (Dabrafenib-resistant); details: A375 GP
[4] = tested on: A375-XP cells (Vemurafenib-resistant); details: A375 XP
IGR37 cells (parental) = details: IGR37 Parental
[5] = tested on: IGR37-GP cells (Dabrafenib-resistant); details: IGR37 GP
[6] = tested on: IGR37-XP cells (Vemurafenib-resistant); details: IGR37 XP

Cc1nc(Nc2ncc(C(=O)Nc3c(C)cccc3Cl)s2)cc(N2CCN(CCO)CC2)n1 [Dasatinib (BMS-354825)]
cell viability (kinase inhibitor library screening) (501Mel cells (parental); 1μΜ, in %): 91.7 | cell viability (kinase inhibitor library screening) (501Mel cells (parental); 10μΜ, in %): 73.7 | cell viability (kinase inhibitor library screening) ([1]; 1μΜ, in %): 96.7 | cell viability (kinase inhibitor library screening) ([1]; 10μΜ, in %): 77.1 | cell viability (kinase inhibitor library screening) ([2]; 1μΜ, in %): 88.2 | cell viability (kinase inhibitor library screening) ([2]; 10μΜ, in %): 63.3 | cell viability (kinase inhibitor library screening) (A375 cells (parental); 1μΜ, in %): 68.7 | cell viability (kinase inhibitor library screening) (A375 cells (parental); 10μΜ, in %): 30.8 | cell viability (kinase inhibitor library screening) ([3]; 1μΜ, in %): 63.7 | cell viability (kinase inhibitor library screening) ([3]; 10μΜ, in %): 48.1 | cell viability (kinase inhibitor library screening) ([4]; 1μΜ, in %): 70.6 | cell viability (kinase inhibitor library screening) ([4]; 10μΜ, in %): 57.8 | cell viability (kinase inhibitor library screening) (IGR37 cells (parental); 1μΜ, in %): 98.7 | cell viability (kinase inhibitor library screening) (IGR37 cells (parental); 10μΜ, in %): 80.2 | cell viability (kinase inhibitor library screening) ([5]; 1μΜ, in %): 91.4 | cell viability (kinase inhibitor library screening) ([5]; 10μΜ, in %): 66.8 | cell viability (kinase inhibitor library screening) ([6]; 1μΜ, in %): 88.2 | cell viability (kinase inhibitor library screening) ([6]; 10μΜ, in %): 39.8

CO[C@H]1C[C@@H]2CC[C@@H](C)[C@@](O)(O2)C(=O)C(=O)N2CCCC[C@H]2C(=O)O[C@H]([C@H](C)C[C@@H]2CC[C@@H](OP(C)(C)=O)[C@H](OC)C2)CC(=O)[C@H](C)/C=C(\C)[C@@H](O)[C@@H](OC)C(=O)[C@H](C)C[C@H](C)/C=C/C=C/C=C/1C [Deforolimus (Ridaforolimus)]
Cell viability in kinase inhibitor library screening, 501Mel Parental, 1μΜ (501Mel cells (parental); 1μΜ, 72 h, in %): 84.8 | Cell viability in kinase inhibitor library screening, 501Mel Parental, 10μΜ (501Mel cells (parental); 10μΜ, 72 h, in %): 82.7 | Cell viability in kinase inhibitor library screening, 501Mel GP, 1μΜ ([1]; 1μΜ, 72 h, in %): 66.5 | Cell viability in kinase inhibitor library screening, 501Mel GP, 10μΜ ([1]; 10μΜ, 72 h, in %): 55.6 | Cell viability in kinase inhibitor library screening, 501Mel XP, 1μΜ ([2]; 1μΜ, 72 h, in %): 54.3 | Cell viability in kinase inhibitor library screening, 501Mel XP, 10μΜ ([2]; 10μΜ, 72 h, in %): 40.7 | Cell viability in kinase inhibitor library screening, A375 Parental, 10μΜ (A375 cells (parental); 10μΜ, 72 h): 73.5 | Cell viability in kinase inhibitor library screening, A375 Parental, 1μΜ (A375 cells (parental); 1μΜ, 72 h): 82.1 | Cell viability in kinase inhibitor library screening, A375 GP, 1μΜ ([3]; 1μΜ, 72 h): 79.3 | Cell viability in kinase inhibitor library screening, A375 GP, 10μΜ ([3]; 10μΜ, 72 h): 72.3 | Cell viability in kinase inhibitor library screening, A375 XP, 1μΜ ([4]; 1μΜ, 72 h): 79.9 | Cell viability in kinase inhibitor library screening, A375 XP, 10μΜ ([4]; 10μΜ, 72 h): 76.9 | Cell viability in kinase inhibitor library screening, IGR37 Parental, 1μΜ (IGR37 cells (parental); 1μΜ, 72 h, in %): 82.2 | Cell viability in kinase inhibitor library screening, IGR37 Parental, 10μΜ (IGR37 cells (parental); 10μΜ, 72 h, in %): 86.0 | Cell viability in kinase inhibitor library screening, IGR37 GP, 10μΜ ([5]; 10μΜ, 72 h): 76.8% | Cell viability in kinase inhibitor library screening, IGR37 GP, 1μΜ ([5]; 1μΜ, 72 h, in %): 90.2 | Cell viability in kinase inhibitor library screening, IGR37 XP, 10μΜ ([6]; 10μΜ, 72 h): 56.1% | Cell viability in kinase inhibitor library screening, IGR37 XP, 1μΜ ([6]; 1μΜ, 72 h, in %): 95.0

C#Cc1cccc(Nc2ncnc3cc(OCCOC)c(OCCO)cc23)c1 [Desmethyl Erlotinib (CP-473420)]
cell viability, 501Mel Parental, 10μΜ (501Mel cells (parental); 10μΜ, 72 h, in %): 82.4 | cell viability, 501Mel GP, 1μΜ ([1]; 1μΜ, 72 h, in %): 107.4 | cell viability, 501Mel GP, 10μΜ ([1]; 10μΜ, 72 h, in %): 74.9 | cell viability, 501Mel XP, 1μΜ ([2]; 1μΜ, 72 h, in %): 100.0 | cell viability, 501Mel XP, 10μΜ ([2]; 10μΜ, 72 h, in %): 41.7 | cell viability, A375 Parental, 1μΜ (A375 cells (parental); 1μΜ, 72 h, in %): 104.3 | cell viability, A375 Parental, 10μΜ (A375 cells (parental); 10μΜ, 72 h, in %): 78.2 | cell viability, A375 GP, 10μΜ ([3]; 10μΜ, 72 h, in %): 65.7 | cell viability, A375 XP, 1μΜ ([4]; 1μΜ, 72 h, in %): 100.2 | cell viability, A375 XP, 10μΜ ([4]; 10μΜ, 72 h, in %): 81.3 | cell viability, IGR37 Parental, 1μΜ (IGR37 cells (parental); 1μΜ, 72 h, in %): 99.9 | cell viability, IGR37 Parental, 10μΜ (IGR37 cells (parental); 10μΜ, 72 h, in %): 92.4 | cell viability, IGR37 GP, 10μΜ ([5]; 10μΜ, 72 h): 73.5% | cell viability, IGR37 GP, 1μΜ ([5]; 1μΜ, 72 h, in %): 85.7 | cell viability, IGR37 XP, 10μΜ ([6]; 10μΜ, 72 h): 49.7% | cell viability, IGR37 XP, 1μΜ ([6]; 1μΜ, 72 h, in %): 80.3

CCc1cnn2c(NCc3ccc[n+]([O-])c3)cc(N3CCCC[C@H]3CCO)nc12 [Dinaciclib (SCH727965)]
cell viability (kinase inhibitor library screening) (501Mel cells (parental); 1μΜ, 72 h): 1.5% | cell viability (kinase inhibitor library screening) (501Mel cells (parental); 10μΜ, 72 h): 1.3% | cell viability (kinase inhibitor library screening) ([1]; 1μΜ, 72 h): 0.636% | cell viability (kinase inhibitor library screening) ([1]; 10μΜ, 72 h): 0.422% | cell viability (kinase inhibitor library screening) ([2]; 1μΜ, 72 h): 0.85% | cell viability (kinase inhibitor library screening) ([2]; 10μΜ, 72 h): 0.249% | cell viability (kinase inhibitor library screening) (A375 cells (parental); 10μΜ, 72 h): 10.7% | cell viability (kinase inhibitor library screening) (A375 cells (parental); 1μΜ, 72 h): 10.8% | cell viability (kinase inhibitor library screening) ([3]; 1μΜ, 72 h): 10.0% | cell viability (kinase inhibitor library screening) ([3]; 10μΜ, 72 h): 6.1% | cell viability (kinase inhibitor library screening) ([4]; 1μΜ, 72 h): 11.5% | cell viability (kinase inhibitor library screening) ([4]; 10μΜ, 72 h): 8.1% | cell viability (kinase inhibitor library screening) (IGR37 cells (parental); 1μΜ, 72 h): 4.4% | cell viability (kinase inhibitor library screening) (IGR37 cells (parental); 10μΜ, 72 h): 2.8% | cell viability (kinase inhibitor library screening) ([5]; 1μΜ, 72 h): 4.4% | cell viability (kinase inhibitor library screening) ([5]; 10μΜ, 72 h): 2.3% | cell viability (kinase inhibitor library screening) ([6]; 1μΜ, 72 h): 3.1% | cell viability (kinase inhibitor library screening) ([6]; 10μΜ, 72 h): 2.6%

CN1CCN(c2ccc3nc(-c4c(N)c5c(F)cccc5[nH]c4=O)[nH]c3c2)CC1 [Dovitinib (TKI-258)]
cell viability, 501Mel Parental, 1μΜ (501Mel cells (parental); 1μΜ, 72 h, in %): 103.1 | cell viability, 501Mel Parental, 10μΜ (501Mel cells (parental); 10μΜ, 72 h, in %): 0.6 | cell viability, 501Mel GP, 1μΜ ([1]; 1μΜ, 72 h, in %): 95.0 | cell viability, 501Mel GP, 10μΜ ([1]; 10μΜ, 72 h, in %): -0.1 | cell viability, 501Mel XP, 1μΜ ([2]; 1μΜ, 72 h, in %): 87.1 | cell viability, 501Mel XP, 10μΜ ([2]; 10μΜ, 72 h, in %): -0.0348 | cell viability, A375 Parental, 1μΜ (A375 cells (parental); 1μΜ, 72 h, in %): 102.8 | cell viability, A375 Parental, 10μΜ (A375 cells (parental); 10μΜ, 72 h, in %): 47.2 | cell viability, A375 GP, 1μΜ ([3]; 1μΜ, 72 h, in %): 93.5 | cell viability, A375 GP, 10μΜ ([3]; 10μΜ, 72 h, in %): 42.2 | cell viability, A375 XP, 1μΜ ([4]; 1μΜ, 72 h, in %): 97.7 | cell viability, A375 XP, 10μΜ ([4]; 10μΜ, 72 h, in %): 58.3 | cell viability, IGR37 Parental, 1μΜ (IGR37 cells (parental); 1μΜ, 72 h, in %): 96.1 | cell viability, IGR37 Parental, 10μΜ (IGR37 cells (parental); 10μΜ, 72 h, in %): 64.0 | cell viability, IGR37 GP, 10μΜ ([5]; 10μΜ, 72 h): 42.8% | cell viability, IGR37 GP, 1μΜ ([5]; 1μΜ, 72 h, in %): 99.9 | cell viability, IGR37 XP, 10μΜ ([6]; 10μΜ, 72 h): 22.5% | cell viability, IGR37 XP, 1μΜ ([6]; 1μΜ, 72 h, in %): 102.6

COc1cc2nccc(Oc3ccc(NC(=O)NC4CC4)c(Cl)c3)c2cc1C(N)=O [E7080 (Lenvatinib)]
cell viability (kinase inhibitor library screening) (501Mel cells (parental); 1μΜ, in %): 106.1 | cell viability (kinase inhibitor library screening) (501Mel cells (parental); 10μΜ, in %): 105.7 | cell viability (kinase inhibitor library screening) ([1]; 1μΜ, in %): 106.1 | cell viability (kinase inhibitor library screening) ([1]; 10μΜ, in %): 90.9 | cell viability (kinase inhibitor library screening) ([2]; 1μΜ, in %): 98.9 | cell viability (kinase inhibitor library screening) ([2]; 10μΜ, in %): 87.0 | cell viability (kinase inhibitor library screening) (A375 cells (parental); 1μΜ, in %): 103.7 | cell viability (kinase inhibitor library screening) (A375 cells (parental); 10μΜ, in %): 95.8 | cell viability (kinase inhibitor library screening) ([3]; 10μΜ, in %): 94.8 | cell viability (kinase inhibitor library screening) ([4]; 10μΜ, in %): 109.2 | cell viability (kinase inhibitor library screening) (IGR37 cells (parental); 1μΜ, in %): 102.9 | cell viability (kinase inhibitor library screening) (IGR37 cells (parental); 10μΜ, in %): 104.3 | cell viability (kinase inhibitor library screening) ([5]; 1μΜ, in %): 97.5 | cell viability (kinase inhibitor library screening) ([5]; 10μΜ, in %): 86.5 | cell viability (kinase inhibitor library screening) ([6]; 1μΜ, in %): 97.7 | cell viability (kinase inhibitor library screening) ([6]; 10μΜ, in %): 58.8
